This experiment has as its target T1, 5-hydroxytryptamine receptor 2C (Rattus norvegicus, UniProt P08909).
T1 sequence (P08909 whole entry): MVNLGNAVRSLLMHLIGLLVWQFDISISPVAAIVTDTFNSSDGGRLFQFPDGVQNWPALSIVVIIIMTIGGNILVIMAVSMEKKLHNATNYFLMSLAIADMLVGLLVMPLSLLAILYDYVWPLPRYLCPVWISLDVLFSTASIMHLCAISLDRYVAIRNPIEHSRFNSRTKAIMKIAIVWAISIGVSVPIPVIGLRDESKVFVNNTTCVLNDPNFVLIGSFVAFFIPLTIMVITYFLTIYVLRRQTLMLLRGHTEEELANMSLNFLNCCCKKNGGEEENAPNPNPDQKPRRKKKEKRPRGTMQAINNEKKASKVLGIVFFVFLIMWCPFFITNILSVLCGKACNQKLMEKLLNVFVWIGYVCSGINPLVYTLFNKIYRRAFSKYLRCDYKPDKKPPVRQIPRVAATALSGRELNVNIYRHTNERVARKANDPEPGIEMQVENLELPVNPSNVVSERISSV
The experiment is described as follows: Binding affinity for 5-hydroxytryptamine 1C receptor was determined.

Broadly, the Kd is the equilibrium constant for the complex coming apart.

`NCCc1c[nH]c2ccc(C(N)=O)cc12` [[3H]-5-carboxamidotryptamine]: the affinity, expressed as Kd, was 631 nM.
